Drawing on PubChem BioAssay (NCI), this text covers GI50 and TGI for 17 molecules.

What all share (assay): growth of human tumour cells (NCI), 48 h
The test system of assay [1] is A498 renal.
In assay [2] the test system is ACHN renal.
Assay [3] deals with HCT-15 colon.
In assay [4] the test system is MALME-3M melanoma.
The test system of assay [5] is NCI/ADR-RES ovarian.
For assay [6], the system named is PC-3 prostate.
The subject of assay [7] is SF-295 CNS.
Assay [8] deals with SF-539 CNS.
In assay [9] the test system is SK-MEL-28 melanoma.
For assay [10], the system named is UO-31 renal.

Structures are written as SMILES. Where “and” joins values, the source holds several entries; their conditions need not be identical. Equal entries are not always repeated.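 Cells were grown in 96-well plates and exposed to each compound for 48 hours at five concentrations; endpoints were interpolated linearly between bracketing concentrations, or set to the highest concentration if not reached. GI50 marks 50% less growth. TGI is the concentration that stops growth completely.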

On to `Nc1ccc(-c2ccc(N)cc2I)c(I)c1`, for which the GI50 in assay [1] is 10.7 µM; in [2] it was 22.6 µM; in [3], 13.7 µM; in assay [4], 11.9 µM; in [5], 19 µM; in [6] it was 16.3 µM. Besides, the GI50 was 15.5 µM in [7], 14.5 µM in [8], 14.1 µM in [9] and 10.6 µM in [10]. Further, the TGI turned out to be 24.1 µM in [1]; 89.6 µM in assay [2]; 34.1 µM in [3]; 36.7 µM in assay [4]; 70 µM in assay [5]; 47.6 µM in [6]. Besides, the TGI in assay [7] came to 33.9 µM; in assay [8], 32.2 µM; in [9], 38.6 µM; in assay [10] it was 26 µM.
Take `CN(C)c1ccc(C(=C2C=CC(=[N+](C)C)C=C2)c2ccc(N(C)C)cc2)cc1`: the GI50 in assay [1] is 0.145 µM; in [2], 0.253 µM; in assay [4] it was 0.216 µM; in [5], 0.41 µM; in assay [6], 0.178 µM; in [8], 0.19 µM. The GI50 is 0.219 µM in assay [9] and 0.284 µM in assay [10]. The TGI was 0.622 µM in assay [1]; 1.17 µM and 1.01 µM in assay [2]; 1.35 µM and 1.26 µM in assay [3]; 0.879 µM and 0.773 µM in assay [4]; 2 µM in assay [5]; 0.963 µM in [6]. Besides, the TGI is 0.244 µM and 0.885 µM in assay [7]; 1.03 µM and 1.23 µM in [8]; 1.09 µM and 1.9 µM in [9]; 1.23 µM and 1.01 µM in assay [10].
For the molecule `CSc1ccccc1C#Cc1ccccc1C#CCCCCO`, the GI50 in [1] is 2.24 µM; in assay [2], 11.3 µM; in assay [3], 3.85 µM; in assay [4] it was 15.2 µM; in assay [5], 11.5 µM; in assay [6], 16.2 µM. The GI50 in assay [7] is 1.54 µM; in assay [8], 13.5 µM; in assay [9] it was 15.1 µM; in assay [10], 12.6 µM. Moreover, the TGI came out at 14.3 µM in assay [1]; 23.4 µM in assay [2]; 15.9 µM in assay [3]; 36.5 µM in [4]; 31.1 µM in assay [5]; 38 µM in assay [6]. The TGI in assay [7] was found to be 6.3 µM; in assay [8] it was 27.2 µM; in assay [9] it was 31.2 µM; in [10], 25.4 µM.
As for `S=C(Nc1cc(Cl)c(Cl)cc1Cl)SCc1ccccc1`, the TGI in [1] is 82.5 µM; in [2], 42.7 µM; in [3] it was 32.6 µM; in assay [4], 59.3 µM; in assay [5], 54.6 µM; in assay [6], above 100 µM. Further, the TGI is 42.6 µM in [7], 48.3 µM in assay [8], above 100 µM in assay [9] and above 100 µM in [10].
`Clc1nc(Cl)c(-c2ccccc2)c(Cl)n1`: the TGI in assay [1] came out at 30.1 µM; in assay [3], 5.01 µM; in assay [4] it was 4.38 µM; in assay [5] it was 11 µM; in assay [6], 16.5 µM; in [7] it was 27.2 µM. Moreover, the TGI came to 10.9 µM in assay [8], 19.3 µM in assay [9] and 9.08 µM in assay [10].
Consider `O=C(CN(/C=C/C(=O)C(F)(F)F)c1ccccc1)c1ccc(Cl)c(Cl)c1`, for which the GI50 in assay [1] is 14.2 µM; in assay [2], 14.7 µM; in assay [3], 14.6 µM; in assay [4], 12.8 µM; in [5] it was 15.2 µM; in assay [6] it was 13.3 µM. The GI50 in assay [7] was 12.4 µM; in [8] it was 18 µM; in [9] it was 23.9 µM; in [10], 11.4 µM. In addition, the TGI in assay [1] was determined as 27.4 µM; in assay [2], 27.9 µM; in assay [3] it was 28.2 µM; in assay [4] it was 32.1 µM; in assay [5] it was 31.3 µM; in assay [6], 26.9 µM. Moreover, the TGI was found to be 27.5 µM in [7], 39.8 µM in [8], 56.2 µM in assay [9] and 24.3 µM in assay [10].
For `CC12CC(OC(=O)[C@]1(C)O)[C@@H]([C@]1(O)CC[C@H]3[C@@H]4C[C@H]5O[C@]56[C@@H](O)C=CC(=O)[C@]6(C)[C@H]4CC[C@@]31C)C2` (some centres undefined), the TGI in assay [1] was 33.2 µM; in assay [2], 22.9 µM; in [3] it was 25.3 µM; in assay [5] it was 68.5 µM; in assay [6], 26.5 µM; in [7], above 100 µM. The TGI amounted to 7.29 µM in [8], 30.2 µM in [9] and 16.8 µM in assay [10].
Regarding `COc1cc(C2CC(c3ccc(N(C)C)cc3)=NN2C(C)=O)cc(OC)c1OC` (centres undefined), the GI50 in assay [1] is 2.18 µM; in [2], 3.57 µM; in assay [3], 1 µM; in assay [4] it was above 100 µM; in assay [5], 3.78 µM; in [6], 1.42 µM. Also, the GI50 is 0.374 µM in [7], 1.35 µM in assay [8], 21 µM in assay [9] and 3.59 µM in [10]. In addition, the TGI in [1] was above 47.4 µM; in [2] it was above 100 µM; in assay [3] it was above 100 µM; in assay [4], above 100 µM; in assay [5], above 100 µM; in [6], above 100 µM. For the same molecule, the TGI was above 100 µM in assay [7], 5.34 µM in [8], above 100 µM in assay [9] and above 100 µM in [10].
Regarding `CCNCCNc1cc(C2CCCCC2)c(C#N)c2nc3ccccc3n12`, the GI50 was 1.56 µM in assay [1]; 1.79 µM in [2]; 1.69 µM in assay [3]; 1.8 µM in assay [4]; 2.35 µM in [5]; 4.81 µM in [6]. Moreover, the GI50 in assay [7] is 1.8 µM; in [9], 1.7 µM; in assay [10] it was 1.66 µM. The TGI came to 2.95 µM in assay [1]; 3.86 µM in assay [2]; 3.46 µM in assay [3]; 3.48 µM in assay [4]; 6.82 µM in assay [5]; 16 µM in [6]. Moreover, the TGI in assay [7], in assay [9] and in assay [10] was 3.36 µM throughout.
Turning to `Nc1c(C(=O)Nc2ccccc2)sc2nc3c(cc12)CN(Cc1ccccc1)CC3`, the GI50 is 5.5 µM in assay [2]; 24.7 µM in [3]; 3.8 µM in [4]; 16.3 µM in assay [5]; 27.1 µM in assay [6]; 5.45 µM in assay [7]. For the same molecule, the GI50 in assay [8] is 2.78 µM; in assay [9], 23.2 µM; in assay [10], 6.14 µM. For the same molecule, the TGI in assay [2], in assay [3], in assay [4], in assay [5], in assay [6] and in [7] was above 100 µM each time. Also, the TGI in assay [8], in assay [9] and in assay [10] was above 100 µM throughout.
As to `CCC(/C=C/c1ccccc1)=N\Nc1ccc(Cl)c(Cl)c1`, the TGI is 76.9 µM in assay [2]; above 100 µM in [3]; 78.9 µM in assay [4]; above 100 µM in [5]; above 100 µM in [6]; above 100 µM in [7]. For the same molecule, the TGI in [8] was 66.1 µM; in assay [9], above 100 µM; in assay [10] it was 57.9 µM.
With `Nc1cc(N)c2nc(-c3ccccc3)c(NCc3ccc(F)cc3)nc2c1`, the GI50 in assay [1] is 16.8 µM; in assay [2] it was 1.71 µM; in [3], 3.34 µM; in assay [5] it was 2.46 µM; in assay [6], 3.5 µM; in assay [7] it was 3.5 µM. The GI50 in assay [8] was 1.83 µM; in assay [9] it was 1.9 µM; in assay [10] it was 3.81 µM. The TGI turned out to be 31 µM in assay [1]; 3.11 µM in assay [2]; 19.1 µM in assay [3]; 5.76 µM in assay [5]; 15.6 µM in assay [6]; 13.6 µM in [7]. Moreover, the TGI was 3.54 µM in assay [8], 3.77 µM in [9] and above 100 µM in [10].
Take `CC(C)(C#N)c1cc(C(=O)Nc2cc(Nc3ncccc3-c3ncnc4nc[nH]c34)ccc2F)cc(C(F)(F)F)c1`: the GI50 in assay [1] was 0.126 µM; in assay [2], 1.2 µM; in assay [4], 0.0648 µM; in [5] it was 1.62 µM; in [9], 0.107 µM; in [10], 0.189 µM. Also, the TGI in [1] was 0.844 µM; in assay [2] it was above 3.41 µM; in assay [3] it was above 2.22 µM; in assay [4], 0.234 µM; in assay [5], above 10 µM; in assay [6], above 4.27 µM. This molecule came in with a TGI in assay [7] above 3.73 µM.
Regarding `CCCCCCCOc1c(OC)cc(C2CC(=O)Nc3c2c(C)nn3-c2nc3ccccc3[nH]2)cc1OC` (centres undefined), the GI50 was 0.881 µM in [1]; 3.21 µM in assay [2]; 3.12 µM in [3]; 3.83 µM in assay [5]; 3.67 µM in [6]; 2.33 µM in assay [7]. In addition, the GI50 was 1.66 µM in assay [8], 2.77 µM in [9] and 1.63 µM in assay [10]. Further, the TGI was 3.9 µM in assay [1]; above 100 µM in [2]; above 100 µM in assay [3]; above 100 µM in [5]; above 100 µM in assay [6]; 7.74 µM in [7]. In addition, the TGI in [8] was 3.11 µM; in [9], 8.61 µM; in assay [10], 4.82 µM.
Regarding `COC(=O)C1=C(OC(=O)c2ccc(Cl)cc2)C(C(=O)OC)[C@@]2(O)[C@@H](C(=O)OC)C(c3ccccc3Cl)C[C@@H]1[C@@H]2C(=O)OC` (some centres undefined), the GI50 was 2.81 µM in [1]; 3.49 µM in assay [2]; 3.04 µM in assay [3]; 4.85 µM in assay [4]; 3.41 µM in [5]; 37.2 µM in assay [6]. The GI50 was 12.4 µM in [8], 30.1 µM in [9] and 4.03 µM in [10]. The TGI in [1] is 13.2 µM; in assay [2], above 100 µM; in assay [3] it was above 100 µM; in [4], 31.7 µM; in assay [5], above 100 µM; in [6] it was above 100 µM. For the same molecule, the TGI in assay [8] is 61 µM; in assay [9], above 100 µM; in assay [10] it was 24 µM.
For the molecule `C/C=C/[C@@H]1OC(=O)C2=C[C@@H](O)[C@@H](/C=C/C)O[C@H]21`, the GI50 in assay [2] is 2.34 µM; in assay [3], 2.82 µM; in assay [4], 1.73 µM; in assay [5] it was 19.2 µM; in assay [6], 13.9 µM; in assay [7], 18 µM. The GI50 in [8] was 1.1 µM; in [9], 6.38 µM; in [10], 3.05 µM. Further, the TGI is 8.01 µM in assay [2]; 17.2 µM in assay [3]; 5.56 µM in assay [4]; above 56.2 µM in [5]; 28.2 µM in assay [6]; 44.8 µM in assay [7]. The TGI in assay [8] is 3.49 µM; in assay [9], 12.6 µM; in assay [10], above 35.7 µM.
For `N=C(N)c1ccc(COc2ccccc2OCc2ccc(C(=N)N)cc2)cc1`, the GI50 in [2] is above 100 µM; in assay [3], 75.6 µM; in [4], 19.2 µM; in assay [5], above 100 µM; in assay [6], 36.3 µM; in [7], 24.1 µM. Besides, the GI50 was 14 µM in [8], 70 µM in assay [9] and above 100 µM in assay [10]. Moreover, the TGI in assay [2] is above 100 µM; in assay [3] it was above 100 µM; in [4] it was 52.2 µM; in assay [5], above 100 µM; in assay [6], above 100 µM; in assay [7], 82.4 µM. Besides, the TGI in assay [8] is 34.6 µM; in assay [9] it was above 100 µM; in assay [10] it was above 100 µM.
